Assay results from the SangsterLogP compilation.

Compound | logP
Cc1cccc2[nH]ccc12 | 2.54
CCc1cccc(CC)c1 | 4.16
Cc1[nH]c2ccccc2c1C | 2.51
CC(C)(C)C1CCCCC1 | 5.04
CCCCCCc1ccc(O)cc1O | 3.07
C/C=C/CCCCC | 4.51
CCc1ccccc1O | 2.36
CCn1c2ccccc2c2ccccc21 | 3.97
O=Cc1ccc(Cl)cc1 | 2.34
CCC1CCCCC1 | 4.56
OCc1ccc2ccccc2c1 | 2.42
CCCCCCCCCCCCc1ccc(O)cc1O | 5.32
Oc1ccc(O)c2ccccc12 | 2.24
CCCCCCCc1ccccc1 | 5.37
CCc1ccccc1CC | 4.1
OCc1c2ccccc2cc2ccccc12 | 3.04
Oc1cccc2c1CCCC2 | 2.87
CCc1ccc(CC)cc1 | 4.22
CC1CCCCC1 | 4.17
